Several values for one entry are separate records, joined by “and”; a condition that tells them apart may be missing. Identical values can stand only once. Blank lines part the entries; values can stand above or below the compound they belong to.
Columns and labels:
[1] = target: T1, DCN1 (Homo sapiens, UniProt Q96GG9); assay: High-resolution LC-tandem mass spectrometry of tryptic peptides; details: for Modifications (DI-548 adduct on DCN1 tryptic peptide): B2 Sequest HT (DI-548) sample, confidence High, not found in Apo sample
Description: Equal amounts of proteins (10 μg) were denatured in 8 M urea. Cysteines were reduced with 10 mM DTT at 45 °C for 30 min and alkylated using 50 mM chloroacetamide (RT, 30 min). Upon dilution of urea to <1.2 M, digestion with 250 ng of sequencing grade, modified trypsin (Promega) was carried out overnight at 37 °C. Reaction was terminated by acidification with trifluoroacetic acid (0.1% v/v) and peptides were purified using SepPak C18 cartridge following the manufacturer’s protocol (Waters Corp). An aliquot of the resulting peptides (~2 µg) was resolved on a nanocapillary reverse phase column (Acclaim PepMap C18, 2 μm, 50 cm, Thermo Fisher Scientific) using 0.1% formic acid/acetonitrile gradient at 300 nL/min and directly introduced in to Q Exactive HF mass spectrometer (Thermo Fisher Scientific, San Jose, CA). MS1 scans were acquired at 60 K resolution (AGC target = 3e^6, max IT = 50 ms). Data-dependent high-energy C-trap dissociation MS/MS spectra were acquired for the 20 most abundant ions (Top20) following each MS1 scan (15 K resolution; AGC target = 1e^5; relative CE ~ 28%). Proteins were identified by searching the data against restricted database containing DCN1 protein sequence and common contaminants using Sequest HT (Proteome Discoverer v2.4, Thermo Fisher Scientific). Search parameters included MS1 mass tolerance of 10 ppm and fragment tolerance of 0.02 Da; two missed cleavages were allowed; carbamidomethylation (+57.02146 Da) and DI-1548 adduct (+510.2665 Da) of cysteine, and oxidation of methionine, deamidation of asparagine and glutamine were considered as potential modifications. False discovery rate (FDR) was determined using target decoy validator and proteins/peptides with an FDR of ≤1% were retained for further analysis. The DI-1548 modified peptide PSMs were manually verified.
Target sequence in this assay (Q96GG9 58-259 limits assumed): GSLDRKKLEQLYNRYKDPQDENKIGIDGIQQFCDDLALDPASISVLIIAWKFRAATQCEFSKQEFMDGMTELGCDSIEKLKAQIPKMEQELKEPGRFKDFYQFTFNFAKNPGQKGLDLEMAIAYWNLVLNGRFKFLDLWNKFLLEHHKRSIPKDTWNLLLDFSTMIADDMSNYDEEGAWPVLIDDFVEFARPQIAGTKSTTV

[2] = Cell viability assay (WST-8), MDA-MB-231; format: cell-based, human; details: human, MDA-MB-231 cells, replicates, read-out: cell viability relative to control
Method in brief: (§1)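 Cells (2000–3000 per well) were treated with serial dilutions of DCN1 inhibitors for 3 days, then incubated 1–3 h with WST-8 and absorbance read at 450 nm. Growth inhibition was sample-to-control absorbance ratio, with EC50 from fitted curves.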

[3] = test system: MDA-MB-231 cells; assay: Cell viability assay (WST-8), MDA-MB-231; format: cell-based, human; details: for cell viability relative to control: replicates
Method in brief: as §1

[4] = test system: HCT116 cells; assay: Cell viability assay (WST-8), HCT116; format: cell-based, human; details: Homo sapiens, HCT-116; 72 h; cell line assigned from panel order; read-out: EC50, cell growth inhibition
Method in brief: as §1

[5] = Cell viability assay (WST-8), KYSE70; format: cell-based, human; details: human, KYSE70 cells, replicates, read-out: cell viability relative to control
Description: (§2) Cell viability assay was performed as previously described. The effect of DCN1 inhibitors on cell growth was evaluated by a WST-8 [2-(2-methoxy-4-nitrophenyl)-3-(4-nitrophenyl)-5-(2,4-disulfophenyl)-2H-tetrazolium, monosodium salt assay (Dojindo Molecular Technologies, Inc). Cells (2000–3000 cells in each well) were seeded in 96-well tissue culture plates in medium (100 μL) and treated with serial dilution of DCN1 inhibitors for 3 days. At the end of incubation, WST-8 dye (20 μL) was added to each well and incubated for 1–3 h, then the absorbance was measured in a microplate reader (Molecular Devices) at 450 nm. Cell growth inhibition was evaluated as the ratio of the absorbance of the sample to that of the control. The values were inserted into Prism software, and the curves and the EC50 values were produced by Prism software.

[6] = test system: KYSE70 cells; assay: Cell viability assay (WST-8), KYSE70; format: cell-based, human; details: for cell viability relative to control: replicates
Description: as §2

[7] = target: T2, cellular DCN1 protein in U2OS cells (Homo sapiens, UniProt Q96GG9); assay: Cellular thermal shift assay (CETSA), DCN1; format: cell-based; details: 1 h, 53 °C
T2 construct: endogenous in cells; host or cells: U2OS
Description: CETSA was performed as previously described. The U2OS cells (5 × 10^5 per sample) were treated with compounds or with DMSO for 1 h, washed with PBS for three times, and dissolved in 50 µL PBS supplemented with protease inhibitor, followed by heating at 53 °C in a Mastercycler gradient (Eppendorf, New York, USA). Treated cells were then subjected to snap-freezing in liquid nitrogen and thawed on ice for three cycles. The protein level of DCN1 and DCN3 in equal amount of the supernatant was examined by western blot methods. GAPDH was used as a control. Results are representative of three independent experiments.

[8] = target: T1, DCN1; assay: BLI assay; format: binding; set-up: biotin (chemical labelling, EZ-Link long-chain reagent)
Description: BLI experiments were performed using an OctetRED96 instrument from PALL/ForteBio, as previously described. All assays were run at 30 °C using PBS (pH 7.4) as the assay buffer, in which 0.1% BSA, 0.01% Tween-20, and 2% DMSO were added. DCN1 protein was biotinylated using the Thermo EZ-Link long-chain biotinylation reagent. Biotinylated DCN1 protein was tethered on super streptavidin biosensors (ForteBio) by dipping sensors into 10 µg/mL protein solutions. To eliminate loose nonspecific bound protein and establish a stable base line, sensors with proteins were moved and dipped into wells with pure assay buffer and equilibrated in the buffer for 10 min. Association–dissociation cycles were performed by moving and dipping sensors into compound solution wells then into pure buffer wells. DMSO-only reference was included in all assays.
Target sequence in this assay (Q96GG9 whole entry): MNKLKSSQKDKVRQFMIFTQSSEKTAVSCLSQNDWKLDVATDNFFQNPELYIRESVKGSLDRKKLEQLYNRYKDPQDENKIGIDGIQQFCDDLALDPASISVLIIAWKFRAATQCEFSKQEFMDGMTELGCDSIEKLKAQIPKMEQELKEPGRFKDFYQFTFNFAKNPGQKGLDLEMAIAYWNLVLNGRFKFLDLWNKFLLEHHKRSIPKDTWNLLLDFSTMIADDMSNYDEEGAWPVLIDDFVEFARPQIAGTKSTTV

[9] = test system: HO-1 mRNA; assay: RT-PCR, HO-1 mRNA in THLE2 cells; format: cell-based, human; details: for HO-1 mRNA level relative to control: THLE2, 10 nM, replicates
Description: Supplementary Figure 23. DI‐1859 increases the mRNA level of NRF2 ta rge te d genes NQO1 and
HO‐1. THLE2 cells we re treated with DI‐1859 at 10 nM fo r 4, 8 and 24 h. Tr e a t e d cells were
harvested and the mRNA level of HO‐1 and NQO1 we re exa m i n e d by RT‐PCR assay. The probes
Scientific (Ann Arbor, MI). Data are presented as mean values with n = 2 independent biological […]

T2 sequence (Q96GG9 whole entry): as above

- Modifications (DI-548 adduct on DCN1 tryptic peptide) ([1]; peptide [R].AATQCEFSK.[Q], DCN_1 [77-85]): 1xDI-548_Haibin [C5]
- residue of DCN1 modified ([1]; tryptic digested peptides): forms covalent bond with Cys115
- EC50 ([3]; Homo sapiens, MDA-MB-231, 72 h, cell line assigned from panel order, read-out: EC50, cell growth inhibition): > 1 µM
- EC50 [4]: > 1 µM
- concentration as low as which the thermal stability of cellular DCN1 protein is enhanced [7]: ≤ 0.3 nM
- times more potent than DI-591 and DI-1548DD in enhancing the thermal stability of cellular DCN1 protein [7]: > 1000 times
- dissociation phase of the complex with DCN1 [8]: no dissociation phase
- concentration at which the BLI signal reaches near its maximum ([8]; 1.56 to 100 nM tested): 25 nM
Compound: C=C(CN1CCOCC1)C(=O)NC[C@@H](NC(=O)[C@H](Cc1nc2ccc(C(C)C)cc2s1)NC(=O)CC)C1CCCCC1 [DI-1548]
- Modifications (DI-548 adduct on DCN1 tryptic peptide) ([1]; peptide [R].AATQCEFSKQEFMDGMTELGCDSIEK.[L], DCN_1 [77-102], 1xCarbamidomethyl [C21] and 1xDeamidated [Q4]): 1xCarbamidomethyl [C21]; 1xDeamidated [Q4]; 1xDI-548_Haibin [C5]
- Modifications (DI-548 adduct on DCN1 tryptic peptide) ([1]; peptide [R].AATQCEFSKQEFMDGMTELGCDSIEK.[L], DCN_1 [77-102], 1xCarbamidomethyl [C21]): 1xCarbamidomethyl [C21]; 1xDI-548_Haibin [C5]
- viability at 72 h ([2]; conc 30, 72 h): 105%
- viability at 72 h ([2]; conc 100, 72 h): 97.2%
- cell viability relative to control ([3]; conc 10, 72 h): 103.908 and 110.805 and 88.1609
- cell viability relative to control ([3]; conc 30, 72 h): 104.754 and 102.705
- cell viability relative to control ([3]; conc 100, 72 h): 102.874 and 99.4253
- cell viability relative to control ([3]; conc 300, 72 h): 87.0115 and 106.207 and 84.7126
- cell viability relative to control ([3]; conc 1000, 72 h): 77.0115 and 107.241 and 112.414
- viability at 72 h ([5]; conc 10, 72 h): 99.4%
- viability at 72 h ([5]; conc 30, 72 h): 104%
- viability at 72 h ([5]; conc 100, 72 h): 99.4%
- viability at 72 h ([5]; conc 300, 72 h): 94.1%
- EC50 ([6]; Homo sapiens, KYSE-70, 72 h, cell line assigned from panel order, read-out: EC50, cell growth inhibition): > 1 µM
- cell viability relative to control ([6]; conc 10, 72 h): 103.349 and 104.463
- cell viability relative to control ([6]; conc 30, 72 h): 98.066 and 96.6942
- cell viability relative to control ([6]; conc 100, 72 h): 94.5283 and 108.512
- cell viability relative to control ([6]; conc 300, 72 h): 88.5377 and 82.0661
- cell viability relative to control ([6]; conc 1000, 72 h): 64.6226 and 79.9057 and 54.5868

Compound: C=C(CN(C)C)C(=O)NC[C@@H](NC(=O)[C@H](Cc1nc2ccc(C(C)C)cc2s1)NC(=O)CC)C1CCCCC1 [DI-1859]
- HO-1 mRNA level relative to control ([9]; 4 h (time from row order and b199)): 1.5 and 1.6
- HO-1 mRNA level relative to control ([9]; 8 h (time from row order and b199)): 1.7 and 1.9
- HO-1 mRNA level relative to control ([9]; 24 h (time from row order and b199)): 2.4 and 3.9
- increase of HO1 mRNA level ([9]; THLE2 liver cells, qRT-PCR): 3 folds

Source: publication PMC8113459, “Selective inhibition of cullin 3 neddylation through covalent targeting DCN1 protects mice from acetaminophen-induced liver toxicity” (Nature Communications, 2021)
